What was measured:
Test in all cases: increase in dead-cell fraction, 72 h; higher = more death;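 further: breast cancer cell lines in 384-well plates, stained with Hoechst plus LIVE/DEAD far red dye and imaged, cells above an LDR intensity threshold counted dead, Hoechst-negative corpses included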
YKL-5-124 = compound: C=CC(=O)Nc1ccc(C(=O)Nc2[nH]nc3c2CN(C(=O)N[C@H](CN(C)C)c2ccccc2)C3(C)C)cc1 [YKL-5-124]
BSJ-03-123 = compound: CC(=O)c1c(C)c2cnc(Nc3ccc(N4CCN(CCOCCOCCOCCNC(=O)COc5cccc6c5C(=O)N(C5CCC(=O)NC5=O)C6=O)CC4)cn3)nc2n(C2CCCC2)c1=O [BSJ-03-123]
[1] = compound: CC(=O)c1c(C)c2cnc(Nc3ccc(N4CCNCC4)cn3)nc2n(C2CCCC2)c1=O
[2] = compound: CCN1CCN(Cc2ccc(Nc3ncc(F)c(-c4cc(F)c5nc(C)n(C(C)C)c5c4)n3)nc2)CC1
Neratinib/HKI272 = compound: CCOc1cc2ncc(C#N)c(Nc3ccc(OCc4ccccn4)c(Cl)c3)c2cc1NC(=O)/C=C/CN(C)C [Neratinib/HKI272]
[3] = compound: CCc1cnn2c(NCc3ccc[n+]([O-])c3)cc(N3CCCC[C@H]3CCO)nc12

## HCC1937
YKL-5-124; 0.001 µM
  increase in dead-cell fraction: 0.004
YKL-5-124; 0.003162 µM
  increase in dead-cell fraction: 0.0243
YKL-5-124; 0.01 µM
  increase in dead-cell fraction: 0.0426
YKL-5-124; 0.03162 µM
  increase in dead-cell fraction: 0.0331
YKL-5-124; 0.1 µM
  increase in dead-cell fraction: 0.0403
YKL-5-124; 0.3162 µM
  increase in dead-cell fraction: 0.0391
YKL-5-124; 1 µM
  increase in dead-cell fraction: 0.0843
YKL-5-124; 3.162 µM
  increase in dead-cell fraction: 0.0582
YKL-5-124; 10 µM
  increase in dead-cell fraction: 0.0895
BSJ-03-123; 0.001 µM
  increase in dead-cell fraction: 0.001
BSJ-03-123; 0.003162 µM
  increase in dead-cell fraction: -0.0071
BSJ-03-123; 0.01 µM
  increase in dead-cell fraction: 0.0079
BSJ-03-123; 0.03162 µM
  increase in dead-cell fraction: 0
BSJ-03-123; 0.1 µM
  increase in dead-cell fraction: 0.0032
BSJ-03-123; 0.3162 µM
  increase in dead-cell fraction: -0.0022
BSJ-03-123; 1 µM
  increase in dead-cell fraction: -0.0018
BSJ-03-123; 3.162 µM
  increase in dead-cell fraction: -0.0018
BSJ-03-123; 10 µM
  increase in dead-cell fraction: 0.0245
[1]; 0.0003162 µM
  increase in dead-cell fraction: -0.0018
[1]; 0.001 µM
  increase in dead-cell fraction: -0.0051
[1]; 0.003162 µM
  increase in dead-cell fraction: 0.0021
[1]; 0.01 µM
  increase in dead-cell fraction: 0.0002
[1]; 0.03162 µM
  increase in dead-cell fraction: -0.0009
[1]; 0.1 µM
  increase in dead-cell fraction: -0.0009
[1]; 0.3162 µM
  increase in dead-cell fraction: -0.0038
[1]; 1 µM
  increase in dead-cell fraction: -0.0027
[1]; 3.162 µM
  increase in dead-cell fraction: -0.0018
[2]; 0.001 µM
  increase in dead-cell fraction: -0.0017
[2]; 0.003162 µM
  increase in dead-cell fraction: -0.0029
[2]; 0.01 µM
  increase in dead-cell fraction: -0.0019
[2]; 0.03162 µM
  increase in dead-cell fraction: -0.0004
[2]; 0.1 µM
  increase in dead-cell fraction: -0.0064
[2]; 0.3162 µM
  increase in dead-cell fraction: -0.0073
[2]; 1 µM
  increase in dead-cell fraction: -0.0012
[2]; 3.162 µM
  increase in dead-cell fraction: 0.0025
[2]; 10 µM
  increase in dead-cell fraction: 0.0559
Neratinib/HKI272; 0.0003162 µM
  increase in dead-cell fraction: 0.0017
Neratinib/HKI272; 0.001 µM
  increase in dead-cell fraction: 0.0031
Neratinib/HKI272; 0.003162 µM
  increase in dead-cell fraction: 0.0127
Neratinib/HKI272; 0.01 µM
  increase in dead-cell fraction: 0.0186
Neratinib/HKI272; 0.03162 µM
  increase in dead-cell fraction: 0.0314
Neratinib/HKI272; 0.1 µM
  increase in dead-cell fraction: 0.0326
Neratinib/HKI272; 0.3162 µM
  increase in dead-cell fraction: 0.0327
Neratinib/HKI272; 1 µM
  increase in dead-cell fraction: 0.0368
Neratinib/HKI272; 3.162 µM
  increase in dead-cell fraction: 0.0974
[3]; 0.0001 µM
  increase in dead-cell fraction: 0.0021
[3]; 0.0003162 µM
  increase in dead-cell fraction: -0.0036
[3]; 0.001 µM
  increase in dead-cell fraction: 0.0015
[3]; 0.003162 µM
  increase in dead-cell fraction: -0.0021
[3]; 0.01 µM
  increase in dead-cell fraction: 0.0113
[3]; 0.03162 µM
  increase in dead-cell fraction: 0.156
[3]; 0.1 µM
  increase in dead-cell fraction: 0.192
[3]; 0.3162 µM
  increase in dead-cell fraction: 0.181
[3]; 1 µM
  increase in dead-cell fraction: 0.19
